Reference: patent US20120108947A1, “METHOD FOR PREDICTING WEIGHT GAIN ASSOCIATED WITH A PHARMACEUTICAL THERAPY” (priority 2009, published 2012)

Settings: in vivo
Method: TRL V1, V2, V3, V4, V5 and V6 responses and VLDL size response are measured during each visit along with increases in weight. […] The relationship of the change in TRL V6 to the change in weight is analyzed using a mixed effects model analysis.

## Cc1cc2c(s1)Nc1ccccc1N=C2N1CCN(C)CC1 [olanzapine, 2-methyl-4-(4-methyl-1-piperazinyl)-10H-thieno[2,3-b][1,5]benzodiazepine]
  magnitude of the TRL V6 response and VLDL size response in comparison to pre-dose concentration: increases
